In patent publication US8716297B2, “Chemical entities to be used for Wee1 inhibition for the treatment of cancer” (AbbVie Inc., priority 2011, dated 2014) one finds Ki data, which are given here for 30 compounds.

The target of this assay is T1, GST-tagged-Wee1 kinase (Homo sapiens, UniProt P30291).
T1 construct: purchased Carnabio 05-177
T1 sequence (P30291 whole entry): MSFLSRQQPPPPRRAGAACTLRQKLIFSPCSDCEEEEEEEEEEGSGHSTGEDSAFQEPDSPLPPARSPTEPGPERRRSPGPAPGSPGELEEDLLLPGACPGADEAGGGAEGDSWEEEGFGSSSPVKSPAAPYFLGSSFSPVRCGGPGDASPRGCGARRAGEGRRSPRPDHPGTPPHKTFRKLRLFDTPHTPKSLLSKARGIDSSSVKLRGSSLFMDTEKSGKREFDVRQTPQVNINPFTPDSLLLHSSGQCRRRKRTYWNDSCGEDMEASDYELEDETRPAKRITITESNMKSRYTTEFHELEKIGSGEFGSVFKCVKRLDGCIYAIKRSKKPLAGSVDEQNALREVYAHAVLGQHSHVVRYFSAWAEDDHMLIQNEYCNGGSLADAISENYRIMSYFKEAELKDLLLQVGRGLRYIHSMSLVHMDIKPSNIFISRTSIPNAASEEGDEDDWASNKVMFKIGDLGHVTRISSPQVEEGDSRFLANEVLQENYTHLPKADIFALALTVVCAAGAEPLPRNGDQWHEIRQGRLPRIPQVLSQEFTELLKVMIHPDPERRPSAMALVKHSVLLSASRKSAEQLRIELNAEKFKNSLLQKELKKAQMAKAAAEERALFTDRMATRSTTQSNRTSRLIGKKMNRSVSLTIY
As to the kind of experiment: Wee1 time-resolved fluorescence equilibrium binding assay (displacement of Oregon Green-labeled ATP-competitive probe). Conditions: TR-FRET probe displacement; 2 nM GST-Wee1, 300 nM probe, 1 hour incubation; read-out: Wee-1 binding (Ki nM). The protocol: Wee1 kinase was assayed using a time-resolved fluorescence equilibrium binding assay monitoring displacement of a rapidly reversible Oregon Green-labeled ATP-competitive kinase probe (N-(2-(2-(2-(4-(4-(5-chloro-4-(2-(1-hydroxycyclobutyl)thiazol-5-yl)-1H-pyrrolo[2,3-b]pyridin-2-yl)phenyl)piperazin-1-yl)ethoxy)ethoxy)ethyl)-2′,7′-difluoro-3′,6′-dihydroxy-3-oxo-3H-spiro[isobenzofuran-1,9′-xanthene]-5-carboxamide) by competitive Wee1 inhibitors.
Background: In TR-FRET formats the signal depends on donor and acceptor labels being close together.
On to `C=CCN1c2ncccc2-c2nc(Nc3ccc4c(c3)NCCC4)ncc2S1(=O)=O` [Example 38, 6-allyl-N-(1,2,3,4-tetrahydroquinolin-7-yl)-6H-pyrido[2,3-c]pyrimido[4,5-e][1,2]thiazin-2-amine 5,5-dioxide], for which the Ki was 51 nM.

Regarding `C=CCN1c2ncccc2-c2nc(Nc3ccc(C4CCNC4)cc3)ncc2S1(=O)=O` (stereo not drawn) [Example 45, 6-allyl-N-[4-(pyrrolidin-3-yl)phenyl]-6H-pyrido[2,3-c]pyrimido[4,5-e][1,2]thiazin-2-amine 5,5-dioxide], the Ki was found to be 3 nM.

Consider `C=CCN1c2cc(Br)ccc2-c2nc(Nc3ccc(N4CCN(C)CC4)cc3)ncc2S1(=O)=O` [Example 64, 6-allyl-8-bromo-N-[4-(4-methylpiperazin-1-yl)phenyl]-6H-pyrimido[5,4-c][2,1]benzothiazin-2-amine 5,5-dioxide], for which the Ki was 2 nM.

Turning to `CCCN1c2cc(-c3cn[nH]c3)ccc2-c2nc(Nc3ccc(N4CCN(C)CC4)cc3)ncc2S1(=O)=O` [Example 70, N-[4-(4-methylpiperazin-1-yl)phenyl]-6-propyl-8-(1H-pyrazol-4-yl)-6H-pyrimido[5,4-c][2,1]benzothiazin-2-amine 5,5-dioxide], the Ki turned out to be 5 nM.

As for `C=CCN1c2ccccc2-c2nc(Nc3ccc(-c4nc5cnccc5[nH]4)cc3)ncc2S1(=O)=O` [Example 14, 6-allyl-N-[4-(1H-imidazo[4,5-c]pyridin-2-yl)phenyl]-6H-pyrimido[5,4-c][2,1]benzothiazin-2-amine 5,5-dioxide], the Ki turned out to be 1440 nM.

For `C=CCN1c2ccccc2-c2nc(Nc3ccc(N4CCNCC4)cc3)ncc2S1(=O)=O` [Example 25, 6-allyl-N-[4-(piperazin-1-yl)phenyl]-6H-pyrimido[5,4-c][2,1]benzothiazin-2-amine 5,5-dioxide], the Ki is 1.5 nM.

On to `CCCN1c2cc(-c3ccc(C(N)=O)cc3)ccc2-c2nc(Nc3ccc(N4CCN(C)CC4)cc3)ncc2S1(=O)=O` [Example 71, 4-(2-{[4-(4-methylpiperazin-1-yl)phenyl]amino}-5,5-dioxido-6-propyl-6H-pyrimido[5,4-c][2,1]benzothiazin-8-yl)benzamide], for which the Ki worked out at 4 nM.

Regarding `C=CCN1c2ccccc2-c2nc(Nc3cccc(N4CCN(C)CC4)c3)ncc2S1(=O)=O` [Example 18, 6-allyl-N-[3-(4-methylpiperazin-1-yl)phenyl]-6H-pyrimido[5,4-c][2,1]benzothiazin-2-amine 5,5-dioxide], the Ki was 4 nM.

Turning to `CCCN1c2ccc(-c3cccnc3)cc2-c2nc(Nc3ccc(N4CCN(C)CC4)cc3)ncc2S1(=O)=O` [Example 98, N-[4-(4-methylpiperazin-1-yl)phenyl]-6-propyl-9-(pyridin-3-yl)-6H-pyrimido[5,4-c][2,1]benzothiazin-2-amine 5,5-dioxide], the Ki was 2.4 nM.

For the compound `CCCN1c2ccc(Br)cc2-c2nc(Nc3ccc(N4CCN(C)CC4)cc3)ncc2S1(=O)=O` [Example 96, 9-bromo-N-[4-(4-methylpiperazin-1-yl)phenyl]-6-propyl-6H-pyrimido[5,4-c][2,1]benzothiazin-2-amine 5,5-dioxide], the Ki was 2 nM.

For the compound `CCCN1c2cc(-c3ccc(C(=O)NC4CC4)cc3)ccc2-c2nc(Nc3ccc(N4CCN(C)CC4)cc3)ncc2S1(=O)=O` [Example 72, N-cyclopropyl-4-(2-{[4-(4-methylpiperazin-1-yl)phenyl]amino}-5,5-dioxido-6-propyl-6H-pyrimido[5,4-c][2,1]benzothiazin-8-yl)benzamide], the Ki worked out at 7 nM.

On to `COC(=O)c1ccc2c(c1)N(c1cccc(C)c1)S(=O)(=O)c1cnc(Nc3ccc(N4CCN(C)CC4)cc3)nc1-2` [Example 89, methyl 6-(3-methylphenyl)-2-{[4-(4-methylpiperazin-1-yl)phenyl]amino}-6H-pyrimido[5,4-c][2,1]benzothiazine-8-carboxylate 5,5-dioxide], for which the Ki was 63 nM.

For `COC(=O)c1ccc2c(c1)NS(=O)(=O)c1cnc(Nc3ccc(N4CCN(C)CC4)cc3)nc1-2` [Example 65, methyl 2-{[4-(4-methylpiperazin-1-yl)phenyl]amino}-6H-pyrimido[5,4-c][2,1]benzothiazine-8-carboxylate 5,5-dioxide], the Ki worked out at 256 nM.

With `CCCN1c2cc(C(=O)N[C@H]3CC[C@H](N)CC3)ccc2-c2nc(Nc3ccc(N4CCN(C)CC4)cc3)ncc2S1(=O)=O` [Example 86, N-(trans-4-aminocyclohexyl)-2-{[4-(4-methylpiperazin-1-yl)phenyl]amino}-6-propyl-6H-pyrimido[5,4-c][2,1]benzothiazine-8-carboxamide 5,5-dioxide], the Ki worked out at 4 nM.

In the case of `CCCN1c2cc(-c3ccncc3)ccc2-c2nc(Nc3ccc(N4CCN(C)CC4)cc3)ncc2S1(=O)=O` [Example 76, N-[4-(4-methylpiperazin-1-yl)phenyl]-6-propyl-8-(pyridin-4-yl)-6H-pyrimido[5,4-c][2,1]benzothiazin-2-amine 5,5-dioxide], the Ki was 5 nM.

For `C=CCN1c2ncccc2-c2nc(Nc3ccccc3)ncc2S1(=O)=O` [Example 32, 6-allyl-N-phenyl-6H-pyrido[2,3-c]pyrimido[4,5-e][1,2]thiazin-2-amine 5,5-dioxide], the Ki amounted to 1450 nM.

`CCCN1c2cc(C(=O)NCCO)ccc2-c2nc(Nc3ccc(N4CCN(C)CC4)cc3)ncc2S1(=O)=O` [Example 84, N-(2-hydroxyethyl)-2-{[4-(4-methylpiperazin-1-yl)phenyl]amino}-6-propyl-6H-pyrimido[5,4-c][2,1]benzothiazine-8-carboxamide 5,5-dioxide]: the Ki worked out at 8 nM.

In the case of `CCCN1c2ccc(-c3ccccc3CN(C)C)cc2-c2nc(Nc3ccc(N4CCN(C)CC4)cc3)ncc2S1(=O)=O` [Example 101, 9-{2-[(dimethylamino)methyl]phenyl}-N-[4-(4-methylpiperazin-1-yl)phenyl]-6-propyl-6H-pyrimido[5,4-c][2,1]benzothiazin-2-amine 5,5-dioxide], the Ki was determined as 7.6 nM.

Turning to `CCCN1c2ccc(-c3ccncc3)cc2-c2nc(Nc3ccc(N4CCN(C)CC4)cc3)ncc2S1(=O)=O` [Example 99, N-[4-(4-methylpiperazin-1-yl)phenyl]-6-propyl-9-(pyridin-4-yl)-6H-pyrimido[5,4-c][2,1]benzothiazin-2-amine 5,5-dioxide], the Ki was 3 nM.

`C=CCN1c2c(C(=O)OC)cccc2-c2nc(Nc3ccc(N4CCN(C)CC4)cc3)ncc2S1(=O)=O` [Example 60, methyl 6-allyl-2-{[4-(4-methylpiperazin-1-yl)phenyl]amino}-6H-pyrimido[5,4-c][2,1]benzothiazine-7-carboxylate 5,5-dioxide]: the Ki stood at 9 nM.

For `C=CCN1c2c(C(=O)NC)cccc2-c2nc(Nc3ccc(N4CCN(C)CC4)cc3)ncc2S1(=O)=O` [Example 61, 6-allyl-N-methyl-2-{[4-(4-methylpiperazin-1-yl)phenyl]amino}-6H-pyrimido[5,4-c][2,1]benzothiazine-7-carboxamide 5,5-dioxide], the Ki was 11 nM.

For `C=CCN1c2ncccc2-c2nc(Nc3ccc(OCCN(CC)CC)cc3)ncc2S1(=O)=O` [Example 39, 6-allyl-N-{4-[2-(diethylamino)ethoxy]phenyl}-6H-pyrido[2,3-c]pyrimido[4,5-e][1,2]thiazin-2-amine 5,5-dioxide], the Ki came out at 15 nM.

As for `C=CCN1c2ncccc2-c2nc(Nc3ccc(N4CCN(C)CC4)cn3)ncc2S1(=O)=O` [Example 102, N-[5-(4-methylpiperazin-1-yl)pyridin-2-yl]-6-(prop-2-en-1-yl)-6H-pyrido[2,3-c]pyrimido[4,5-e][1,2]thiazin-2-amine 5,5-dioxide], the Ki worked out at 210 nM.

For `C=CCN1c2ccccc2-c2nc(Nc3ccccc3N3CCN(C)CC3)ncc2S1(=O)=O` [Example 12, 6-allyl-N-[2-(4-methylpiperazin-1-yl)phenyl]-6H-pyrimido[5,4-c][2,1]benzothiazin-2-amine 5,5-dioxide], the Ki was found to be 738 nM.

On to `C=CCN1c2ncccc2-c2nc(Nc3ccc(N4CCNCC4)cc3)ncc2S1(=O)=O` [Example 34, 6-allyl-N-[4-(piperazin-1-yl)phenyl]-6H-pyrido[2,3-c]pyrimido[4,5-e][1,2]thiazin-2-amine 5,5-dioxide], for which the Ki was 2 nM.

Consider `C=CCN1c2ncccc2-c2nc(Nc3ccc(N4CCNCC4)c(F)c3)ncc2S1(=O)=O` [Example 36, 6-allyl-N-[3-fluoro-4-(piperazin-1-yl)phenyl]-6H-pyrido[2,3-c]pyrimido[4,5-e][1,2]thiazin-2-amine 5,5-dioxide], for which the Ki came to 9 nM.

Regarding `CCCN1c2cc(C(=O)NC3CCCCC3)ccc2-c2nc(Nc3ccc(N4CCN(C)CC4)cc3)ncc2S1(=O)=O` [Example 81, N-cyclohexyl-2-{[4-(4-methylpiperazin-1-yl)phenyl]amino}-6-propyl-6H-pyrimido[5,4-c][2,1]benzothiazine-8-carboxamide 5,5-dioxide], the Ki was found to be 13 nM.

Regarding `C=CCN1c2ccccc2-c2nc(Nc3ccc4c(c3)CNCC4)ncc2S1(=O)=O` [Example 26, 6-allyl-N-(1,2,3,4-tetrahydroisoquinolin-7-yl)-6H-pyrimdio[5,4-c][2,1]benzothiazin-2-amine 5,5-dioxide], the inhibition constant (Ki) stood at 1 nM.

In the case of `CCCN1c2ccccc2-c2nc(Nc3ccc(N4CCN(C)CC4)cc3)ncc2S1(=O)=O` [Example 67, N-[4-(4-methylpiperazin-1-yl)phenyl]-6-propyl-6H-pyrimido[5,4-c][2,1]benzothiazin-2-amine 5,5-dioxide], the Ki amounted to 4 nM.

For `CCCN1c2cc(-c3c[nH]c4ncccc34)ccc2-c2nc(Nc3ccc(N4CCN(C)CC4)cc3)ncc2S1(=O)=O` [Example 77, N-[4-(4-methylpiperazin-1-yl)phenyl]-6-propyl-8-(1H-pyrrolo[2,3-b]pyridin-3-yl)-6H-pyrimido[5,4-c][2,1]benzothiazin-2-amine 5,5-dioxide], the Ki turned out to be 57 nM.

The term Ki denotes a dissociation constant, usually derived from enzyme kinetics or from competition with a known ligand.
